Laboratory results reported in ChEMBL document CHEMBL5724914, “Linking interpersonal differences in gut microbiota composition and drug biotransformation activity” (2024).

Details: human gut metagenome, 24 h, 2 µM
Further: call rule not given here.

Bacterial Biotransformation | Compound
Compound NOT metabolized | CC12CC3CC(C)(C1)CC(N)(C3)C2 [MEMANTINE]
Compound metabolized | Cc1cc(C)cc(OCC2CNC(=O)O2)c1 (stereo not given) [METAXALONE]

Assay: (§1) The drug is tested on Z-009 corresponding to pig gut metagenome with ENA study accession number: PRJEB37062 and ENA sample accession number: ERS12561809 for biotransformation under anaerobic condition. The drug concentrations were measured over 9 timepoints collected between 0 and 24 hours of incubation by liquid-chromatography-coupled mass spectrometry (LC–MS)
Details: 2 µM

Bacterial Biotransformation | Compound
Compound NOT metabolized | CC12CC3CC(C)(C1)CC(N)(C3)C2 [MEMANTINE]
Compound NOT metabolized | Cc1cc(C)cc(OCC2CNC(=O)O2)c1 (stereo not given) [METAXALONE]

Details: human gut metagenome, 24 h, 2 µM
Remark: another data set of the same source

Bacterial Biotransformation | Compound
Compound NOT metabolized | CC12CC3CC(C)(C1)CC(N)(C3)C2 [MEMANTINE]
Compound metabolized | Cc1cc(C)cc(OCC2CNC(=O)O2)c1 (stereo not given) [METAXALONE]

Details: human gut metagenome, 24 h, 2 µM
Remark: another data set of the same source

Bacterial Biotransformation | Compound
Compound NOT metabolized | CC12CC3CC(C)(C1)CC(N)(C3)C2 [MEMANTINE]
Compound NOT metabolized | Cc1cc(C)cc(OCC2CNC(=O)O2)c1 (stereo not given) [METAXALONE]

Details: human gut metagenome, 24 h, 2 µM
Remark: another data set of the same source

Bacterial Biotransformation | Compound
Compound NOT metabolized | CC12CC3CC(C)(C1)CC(N)(C3)C2 [MEMANTINE]
Compound NOT metabolized | Cc1cc(C)cc(OCC2CNC(=O)O2)c1 (stereo not given) [METAXALONE]

Details: human gut metagenome, 24 h, 2 µM
Remark: another data set of the same source

Bacterial Biotransformation | Compound
Compound NOT metabolized | CC12CC3CC(C)(C1)CC(N)(C3)C2 [MEMANTINE]
Compound NOT metabolized | Cc1cc(C)cc(OCC2CNC(=O)O2)c1 (stereo not given) [METAXALONE]

Assay: as §1, with “WLS-073” for “Z-009”, “human” for “pig”, “ERS12561749” for “ERS12561809”
Details: 2 µM

Bacterial Biotransformation | Compound
Compound NOT metabolized | CC12CC3CC(C)(C1)CC(N)(C3)C2 [MEMANTINE]
Compound NOT metabolized | Cc1cc(C)cc(OCC2CNC(=O)O2)c1 (stereo not given) [METAXALONE]

Details: human gut metagenome, 24 h, 2 µM
Remark: another data set of the same source

Bacterial Biotransformation | Compound
Compound NOT metabolized | CC12CC3CC(C)(C1)CC(N)(C3)C2 [MEMANTINE]
Compound metabolized | Cc1cc(C)cc(OCC2CNC(=O)O2)c1 (stereo not given) [METAXALONE]

Assay: as §1, with “Z-022” for “Z-009”, “mouse” for “pig”, “ERS12561821” for “ERS12561809”
Details: 2 µM

Bacterial Biotransformation | Compound
Compound metabolized | CC12CC3CC(C)(C1)CC(N)(C3)C2 [MEMANTINE]
Compound NOT metabolized | Cc1cc(C)cc(OCC2CNC(=O)O2)c1 (stereo not given) [METAXALONE]

Assay: as §1, with “Z-006” for “Z-009”, “mouse” for “pig”, “ERS12561806” for “ERS12561809”
Details: 2 µM

Bacterial Biotransformation | Compound
Compound NOT metabolized | CC12CC3CC(C)(C1)CC(N)(C3)C2 [MEMANTINE]
Compound NOT metabolized | Cc1cc(C)cc(OCC2CNC(=O)O2)c1 (stereo not given) [METAXALONE]

Assay: as §1, with “Z-023” for “Z-009”, “to” for “to pig gut”, “ERS12561822” for “ERS12561809”
Details: 2 µM

Bacterial Biotransformation | Compound
Compound metabolized | CC12CC3CC(C)(C1)CC(N)(C3)C2 [MEMANTINE]
Compound NOT metabolized | Cc1cc(C)cc(OCC2CNC(=O)O2)c1 (stereo not given) [METAXALONE]

Assay: as §1, with “WLS-350” for “Z-009”, “human” for “pig”, “ERS12561789” for “ERS12561809”
Details: 2 µM

Bacterial Biotransformation | Compound
Compound NOT metabolized | CC12CC3CC(C)(C1)CC(N)(C3)C2 [MEMANTINE]
Compound metabolized | Cc1cc(C)cc(OCC2CNC(=O)O2)c1 (stereo not given) [METAXALONE]

Assay: as §1, with “Z-004” for “Z-009”, “to” for “to pig gut”, “ERS12561804” for “ERS12561809”
Details: 2 µM

Bacterial Biotransformation | Compound
Compound NOT metabolized | CC12CC3CC(C)(C1)CC(N)(C3)C2 [MEMANTINE]
Compound NOT metabolized | Cc1cc(C)cc(OCC2CNC(=O)O2)c1 (stereo not given) [METAXALONE]

Assay: as §1, with “Z-013” for “Z-009”, “rabbit” for “pig”, “ERS12561813” for “ERS12561809”
Details: 2 µM

Bacterial Biotransformation | Compound
Compound NOT metabolized | CC12CC3CC(C)(C1)CC(N)(C3)C2 [MEMANTINE]
Compound NOT metabolized | Cc1cc(C)cc(OCC2CNC(=O)O2)c1 (stereo not given) [METAXALONE]

Details: human gut metagenome, 24 h, 2 µM
Remark: another data set of the same source

Bacterial Biotransformation | Compound
Compound NOT metabolized | CC12CC3CC(C)(C1)CC(N)(C3)C2 [MEMANTINE]
Compound metabolized | Cc1cc(C)cc(OCC2CNC(=O)O2)c1 (stereo not given) [METAXALONE]

Assay: as §1, with “WLS-010” for “Z-009”, “human” for “pig”, “ERS12561743” for “ERS12561809”
Details: 2 µM

Bacterial Biotransformation | Compound
Compound NOT metabolized | CC12CC3CC(C)(C1)CC(N)(C3)C2 [MEMANTINE]
Compound metabolized | Cc1cc(C)cc(OCC2CNC(=O)O2)c1 (stereo not given) [METAXALONE]

Details: human gut metagenome, 24 h, 2 µM
Remark: another data set of the same source

Bacterial Biotransformation | Compound
Compound NOT metabolized | CC12CC3CC(C)(C1)CC(N)(C3)C2 [MEMANTINE]
Compound NOT metabolized | Cc1cc(C)cc(OCC2CNC(=O)O2)c1 (stereo not given) [METAXALONE]

Assay: as §1, with “WLS-052” for “Z-009”, “human” for “pig”, “ERS12561747” for “ERS12561809”
Details: 2 µM

Bacterial Biotransformation | Compound
Compound NOT metabolized | CC12CC3CC(C)(C1)CC(N)(C3)C2 [MEMANTINE]
Compound metabolized | Cc1cc(C)cc(OCC2CNC(=O)O2)c1 (stereo not given) [METAXALONE]

Assay: as §1, with “Z-025” for “Z-009”, “rabbit” for “pig”, “ERS12561824” for “ERS12561809”
Details: 2 µM

Bacterial Biotransformation | Compound
Compound NOT metabolized | CC12CC3CC(C)(C1)CC(N)(C3)C2 [MEMANTINE]
Compound NOT metabolized | Cc1cc(C)cc(OCC2CNC(=O)O2)c1 (stereo not given) [METAXALONE]

Assay: as §1, with “Z-007” for “Z-009”, “rat” for “pig”, “ERS12561807” for “ERS12561809”
Details: 2 µM

Bacterial Biotransformation | Compound
Compound NOT metabolized | CC12CC3CC(C)(C1)CC(N)(C3)C2 [MEMANTINE]
Compound NOT metabolized | Cc1cc(C)cc(OCC2CNC(=O)O2)c1 (stereo not given) [METAXALONE]
